In patent publication US10829458B2 (Araxes Pharma LLC, priority 2015, dated 2020):

Molecular target: T1, KRAS G12C 1-169, his-tagged protein, GDP-loaded (Homo sapiens, UniProt P01116, G12C)
T1 construct: KRAS G12C 1-169, his-tagged protein, GDP-loaded
Assay: Biochemical assay: covalent modification of KRAS G12C measured by mass spectrometry (RapidFire/TOF or Q-Exactive)
Settings: covalent binding to KRAS G12C
In short: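 Covalent adduct formation read by intact-mass spectrometry (TOF or Q Exactive Plus, charge envelopes deconvoluted into modified and unmodified species) after formic acid quench. Reactions contained 2 μM GDP-bound KRAS G12C 1-169 (his-tag) in Hepes/NaCl/MgCl2 buffer plus 10, 30 or 100 μM final compound, held 30 min, 2 h or 24 h at room temperature.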

Row | Structure (SMILES) | Binding % (compounds of structure (I)) | further results
1 | C=CC(=O)N1CCN(c2nc(OCC3CN(c4ncccn4)C3)nc3c(F)c(-c4c(C)ccc5[nH]ncc45)c(Cl)cc23)CC1 [Example I-170, 1-(4-(6-chloro-8-fluoro-7-(5-methyl-1H-indazol-4-yl)-2-((1-(pyrimidin-2-yl)azetidin-3-yl)methoxy)quinazolin-4-yl)piperazin-1-yl) prop-2-en-1-one] | ++ (++ indicates binding activity from 50 to 90%) | 
2 | C=CC(=O)N1CCN(c2ncnc3c(F)c(-c4c(O)cccc4F)c(Cl)cc23)[C@@H](CO)C1 [III-39, 1-((3R)-4-(6-chloro-8-fluoro-7-(2-fluoro-6-hydroxy-phenyl)quinazolin-4-yl)-3-(hydroxy-methyl)piperazin-1-yl)prop-2-en-1-one] |  | Binding % (compounds of structure (III)): + (+ indicates binding activity up to 50%)
3 | C=CC(=O)N1CCN(c2nc(OCC(F)(F)c3ccccn3)nc3c(F)c(-c4c(O)cccc4F)c(Cl)cc23)CC1 [Example I-124, 1-(4-(6-chloro-2-(2,2-difluoro-2-(pyridin-2-yl)ethoxy)-8-fluoro-7-(2-fluoro-6-hydroxyphenyl)quinazolin-4-yl)piperazin-1-yl) prop-2-en-1-one] | +++ (+++ indicates binding activity greater than 90%) | 
4 | C=CC(=O)Oc1cccc(F)c1-c1c(Cl)cc2c(N3CCN(C(=O)C=C)CC3)nc(OCC(=O)N(C)C)nc2c1F [Example I-9, 2-(4-(4-acryloyl-piperazin-1-yl)-6-chloro-2-(2-(dimethylamino)-2-oxoethoxy)-8-fluoroquinazolin-7-yl)-3-fluorophenyl acrylate] | ++ (++ indicates binding activity from 50 to 90%) | 
5 | C=CC(=O)N1CCN(c2nc(OCc3ccccn3)nc3c(F)c(-c4c(O)cccc4F)c(Cl)cc23)CC1 [Example I-112, 1-(4-(6-chloro-8-fluoro-7-(2-fluoro-6-hydroxyphenyl)-2-(pyridin-2-ylmethoxy)quinazolin-4-yl)piperazin-1-yl) prop-2-en-1-one] | +++ (+++ indicates binding activity greater than 90%) | 
6 | C=CC(=O)N1CCN(c2nc(OCCN3CC(F)(F)C3)nc3c(F)c(-c4c(O)cccc4F)c(Cl)cc23)CC1 (atropisomer, axis not shown) [Example I-126, (R)-1-(4-(6-chloro-2-(2-(3,3-difluoro-azetidin-1-yl)ethoxy)-8-fluoro-7-(2-fluoro-6-hydroxyphenyl)quinazolin-4-yl)piperazin-1-yl) prop-2-en-1-one] | + (+ indicates binding activity up to 50%) | 
7 | C=CC(=O)N1CCN(c2nc(NC3CCN(C4CC4)CC3)nc3c(F)c(-c4c(C)ccc5[nH]ncc45)c(Cl)cc23)CC1 (atropisomer, axis not shown) [Example I-81, (S)-1-(4-(6-chloro-2-(1-cyclopropyl-piperidin-4-ylamino)-8-fluoro-7-(5-methyl-1H-indazol-4-yl)quinazolin-4-yl)piperazin-1-yl)prop-2-en-1-one] | + (+ indicates binding activity up to 50%) | 
8 | C=CC(=O)N1CCN(c2nc(NC(=O)c3ccnc(C)c3)nc3c(F)c(-c4c(O)cccc4F)c(Cl)cc23)CC1 [Example I-181, N-(4-(4-acryloyl-piperazin-1-yl)-6-chloro-8-fluoro-7-(2-fluoro-6-hydroxyphenyl)quinazolin-2-yl)-2-methyliso-nicotinamide] | + (+ indicates binding activity up to 50%) | 
9 | C=CC(=O)N1CCN(c2nc(N3CC(C)(N(C)C)C3)nc3c(F)c(-c4c(O)cccc4F)c(Cl)cc23)CC1 [Example I-149, 1-(4-(6-chloro-2-(3-(dimethyl-amino)-3-methyl-azetidin-1-yl)-8-fluoro-7-(2-fluoro-6-hydroxyphenyl)quinazolin-4-yl)piperazin-1-yl) prop-2-en-1-one] | +++ (+++ indicates binding activity greater than 90%) | 
10 | C=CC(=O)N1CCN(c2nc(N3CC(N4CCC(F)(F)CC4)C3)nc3c(F)c(-c4c(O)cccc4F)c(Cl)cc23)CC1 [Example I-23, 1-(4-(6-chloro-2-(3-(4,4-difluoro-piperidin-1-yl)azetidin-1-yl)-8-fluoro-7-(2-fluoro-6-hydroxyphenyl)quinazolin-4-yl)piperazin-1-yl) prop-2-en-1-one] | ++ (++ indicates binding activity from 50 to 90%) | 
11 | C=CC(=O)N1CCN(c2nc(OCCN(CC)CC)nc3c(F)c(-c4c(C)ccc5cn[nH]c45)c(Cl)cc23)CC1 [Example I-183, 1-(4-(6-chloro-2-(2-(diethyl-amino)ethoxy)-8-fluoro-7-(6-methyl-1H-indazol-7-yl)quinazolin-4-yl)piperazin-1-yl) prop-2-en-1-one] | +++ (+++ indicates binding activity greater than 90%) | 
12 | C=CC(=O)N1CCN(c2nc(N3CC(N4CCC4)C3)nc3c(F)c(-c4c(O)cccc4F)c(Cl)cc23)CC1 [Example I-162, 1-(4-(2-([1,3′-biazetidin]-1′-yl)-6-chloro-8-fluoro-7-(2-fluoro-6-hydroxyphenyl)quinazolin-4-yl)piperazin-1-yl) prop-2-en-1-one] | + (+ indicates binding activity up to 50%) | 
13 | C=CC(=O)N1CCN(c2nc(OCCN(C)C)nc3c(F)c(-c4cc(O)cc5ccccc45)c(Cl)cc23)CC1 (atropisomer, axis not shown) [Example I-95, (S)-1-(4-(6-chloro-2-(2-(dimethylamino)ethoxy)-8-fluoro-7-(3-hydroxy-naphthalen-1-yl)quinazolin-4-yl)piperazin-1-yl)prop-2-en-1-one] | +++ (+++ indicates binding activity greater than 90%) | 
14 | C=CC(=O)Nc1cc(-c2ncnc3c(F)c(-c4c(O)cccc4F)c(Cl)cc23)ccn1 [II-12, N-(4-(6-chloro-8-fluoro-7-(2-fluoro-6-hydroxyphenyl)quinazolin-4-yl)pyridin-2-yl)acrylamide] |  | Binding % (compounds of structure (II)): + (+ indicates binding activity up to 50%)
15 | C=CC(=O)N1CCN(c2nc(NC3CCN(C(C)C)CC3)nc3c(F)c(-c4cc(O)cc5ccccc45)c(Cl)cc23)CC1 [Example I-77, 1-(4-(6-chloro-8-fluoro-7-(3-hydroxy-naphthalen-1-yl)-2-(1-isopropyl-piperidin-4-ylamino)quinazolin-4-yl)piperazin-1-yl)prop-2-en-1-one] | +++ (+++ indicates binding activity greater than 90%) | 
16 | C=C(F)C(=O)N1CCN(c2nc(OCCN3CCOCC3)nc3c(F)c(-c4cc(O)cc5ccccc45)c(Cl)cc23)CC1 [Example I-50, 1-(4-(6-chloro-8-fluoro-7-(3-hydroxy-naphthalen-1-yl)-2-(2-morpholino-ethoxy)quinazolin-4-yl)piperazin-1-yl)-2-fluoroprop-2-en-1-one] | ++ (++ indicates binding activity from 50 to 90%) | 
17 | C=CC(=O)N1CCN(c2nc(P(C)(C)=O)nc3c(F)c(-c4c(O)cccc4F)c(Cl)cc23)CC1 [Example I-205, 1-(4-(6-chloro-2-(dimethyl-phosphoryl)-8-fluoro-7-(2-fluoro-6-hydroxyphenyl)quinazolin-4-yl)piperazin-1-yl) prop-2-en-1-one] | ++ (++ indicates binding activity from 50 to 90%) | 
18 | C=CC(=O)N1CCN(c2nc(OC3CCN(C4CC4)CC3)nc3c(F)c(-c4c(C)ccc5[nH]ncc45)c(Cl)cc23)CC1 [Example I-138] | +++ (+++ indicates binding activity greater than 90%) | 
19 | C=CC(=O)N1CCN(c2nc(N3CC(N4CCN(C)CC4)C3)nc3c(F)c(-c4c(O)cccc4F)c(Cl)cc23)CC1 [Example I-41, 1-(4-(6-chloro-8-fluoro-7-(2-fluoro-6-hydroxyphenyl)-2-(3-(4-methyl-piperazin-1-yl)azetidin-1-yl)quinazolin-4-yl)piperazin-1-yl)prop-2-en-1-one] | +++ (+++ indicates binding activity greater than 90%) | 
20 | C=CC(=O)N1CCN(c2nc(OCC3OCCO3)nc3c(F)c(-c4c(C)ccc5[nH]ncc45)c(Cl)cc23)CC1 [Example I-164, 1-(4-(2-((1,3-dioxolan-2-yl)methoxy)-6-chloro-8-fluoro-7-(5-methyl-1H-indazol-4-yl)quinazolin-4-yl)piperazin-1-yl) prop-2-en-1-one] | ++ (++ indicates binding activity from 50 to 90%) | 
21 | C=CC(=O)N1CCN(c2nc(OCC3OCCO3)nc3c(F)c(-c4c(O)cccc4F)c(Cl)cc23)CC1 [Example I-163, 1-(4-(2-((1,3-dioxolan-2-yl)methoxy)-6-chloro-8-fluoro-7-(2-fluoro-6-hydroxyphenyl)quinazolin-4-yl)piperazin-1-yl) prop-2-en-1-one] | +++ (+++ indicates binding activity greater than 90%) | 
22 | C=CC(=O)N1CCN(c2nc(OCc3ccc(C#N)nc3)nc3c(F)c(-c4c(O)cccc4F)c(Cl)cc23)CC1 [Example I-129, 5-((4-(4-acryloyl-piperazin-1-yl)-6-chloro-8-fluoro-7-(2-fluoro-6-hydroxyphenyl)quinazolin-2-yloxy)methyl) picolinonitrile] | +++ (+++ indicates binding activity greater than 90%) | 
23 | C=CC(=O)N1CCN(c2nc(NC3CCCN(CC4CC4)C3)nc3c(F)c(-c4c(O)cccc4F)c(Cl)cc23)CC1 (stereo not drawn) [Example I-134, 1-(4-(6-chloro-2-(1-(cyclopropyl-methyl)piperidin-3-ylamino)-8-fluoro-7-(2-fluoro-6-hydroxyphenyl)quinazolin-4-yl)piperazin-1-yl) prop-2-en-1-one] | +++ (+++ indicates binding activity greater than 90%) | 
24 | C=CC(=O)N1CCN(c2ncnc3c(F)c(-c4c(O)cccc4F)c(Cl)cc23)[C@H](C)C1 [III-12, 1-((3R)-4-(6-chloro-8-fluoro-7-(2-fluoro-6-hydroxy-phenyl)quinazolin-4-yl)-3-methyl-piperazin-1-yl)prop-2-en-1-one] |  | Binding % (compounds of structure (III)): + (+ indicates binding activity up to 50%)
